Series [1] concerns human-derived tracheal/bronchial epithelial cells (EpiAirway Tissue Model). Nature of the series: Transepithelial electrical resistance (TER) of an epithelial cell monolayer. It is filed as cell-based. Conditions: for activity at 1000 µM: Homo sapiens, Epithelial cell, 1 h, read-out: Mean % of Original TER Value. As to the method: Inserts are feed for each day of recovery. TER measurements were accomplished using the Endohm-12 Tissue Resistance Measurement Chamber connected to the EVOM Epithelial Voltohmmeter (World Precision Instruments, Sarasota, Fla.) with the electrode leads. The electrodes and a tissue culture blank insert were equilibrated for at least 20 minutes in MatTek medium with the power off prior to checking calibration. The background resistance was measured with 1.5 ml media in the Endohm tissue chamber and 300 μl media in the blank insert. The top electrode was adjusted so that it was close to, but not making contact with, the top surface of the insert membrane. Background resistance of the blank insert was about 5-20 ohms. […] TER values are a function of the surface area of the tissue. […] By this method of calculation, TER will be expressed as both Ohms*cm2 and percent original TER value. […] Several different lipid types (see Table 1) were screened to select for lipids that are capable of enhancing the permeation of a biological agent across an epithelial cell monolayer. […] A reduction in TER correlates with the ability to enhance the permeation of a molecule and biological agent across an epithelia.

For series [2] the test system is unchanged. Nature of the series: in vitro. As to the method:
Normal, human-derived tracheal/bronchial epithelial cells will serve as the model cell system for assessing the lipids listed in Table 1. The cells are supplied by MatTek Corp. (Ashland, Mass.) as the EpiAirway™ Tissue Model. The cells are provided as a confluent monolayer on a Millipore Milicell-CM cell culture insert with a pore size of 0.4 μM, inner diameter of 0.8 cm and surface area of 0.6 cm^2 and comprised of transparent hydrophilic Teflon (PTFE). Upon receipt, the membranes are cultured in 1 ml basal media (phenol red-free and hydrocortisone-free Dulbecco's Modified Eagle's Media (DMEM) at 37° C./5% CO2 for 24-48 hours before use. Inserts are feed for each day of recovery.
The amount of cell death was assayed by measuring the loss of lactate dehydrogenase (LDH) from the cells using a CytoTox 96 Cytotoxicity Assay Kit (Promega Corp., Madison, Wis.). A treatment of 1% Octylphenolpoly(ethyleneglycolether)x (Triton X-100™) diluted in PBS was used as a lysis control. One percent Triton X-100™ mediated cell lysis was normalized to 100%. For basal-lateral LDH levels, triplicates of 50 μl of the basal media were loaded into a 96-well assay plate. For apical LDH levels, 150 μl of Epi-Cm was added to the apical side of each chamber and mixed by pipeting. One hundred and fifty microliters was then removed and diluted 2-fold prior to performing the LDH assay. All apical LDH assay were performed in triplicate and with 50 μl of the diluted test solution. Fresh, cell-free culture medium will be used as a blank. Total LDH levels were determined by lysing cells in a final concentration of 0.9% Triton-X100™. Fifty microliters of substrate solution was added to each well and the plates incubated for 30 minutes at room temperature in the dark. Following incubation, 50 μl of stop solution was added to each well and the plates read on an optical density plate reader at […]. Cytotoxicity was expressed as a percentage calculated by subtracting the average absorbance of the PBS control wells as the endogenously released LDH level and expressing that value relative to the average Triton-X100 control, which represents total LDH content. [formula] Osmolality
For the instant application, phosphate buffered saline (PBS) served as a negative control for both the TER assay and LDH (cytotoxicity) assay. […] TER measurements and LDH levels were taken immediately after a one hour treatment of the cultured cells with each lipid, unless specified otherwrise.
TER reduction was expressed as the percent decrease in TER value from time zero to one hour post-treatment. Thus, greater percent reduction in TER represents less electrical resistance across the epithelial cell monolayer and consequently greater epithelial cell permeation. Cytotoxicity (LDH levels) for each lipid was expressed as a percent of the LDH levels measured after Triton-X100 treatment of the cells. Triton-X100™ LDH levels were normalized to 100%.

For series [3] the test system is unchanged. Nature of the series: FITC-Dextran permeation assay across epithelial cell monolayer. It is filed as cell-based. Conditions: for Mean % FD3 Permeation: FITC-dextran 3000 (Table 4); for permeation of FD3 relative to negative controls: text summary of Table 4. On the procedure:
Each tissue insert was placed in an individual well containing 1 ml of MatTek basal media. On the apical surface of the inserts, 20 μl of test formulation was applied according to study design, and the samples were placed on a shaker (˜100 rpm) for 1.5 hours at 37° C. FITC-labeled dextran solution was added to inserts apically and a fluorescence measurement was taken from the basolateral media after the incubation period. Two hundred microliters of the basal media for each test formulation was transferred to a dark-wall fluorescent reading plate. Each test formulation was tested in triplicate. Fluorescent intensity was measured at 470 nM with the microplate fluorescence reader FLx800 (Bio-Tek Instruments, Inc., Winooski, Vt.). A FITC labeled dextran with a molecular weight of 3 kDA, 10 kDA, 20 kDA, 40 kDA, 70 kDA and/or 500 kDA was used to assess the ability of individual lipids to deliver a model protein across an epithelia.
Permeation is expressed as percent permeation and was calculated as follows: [formula] [formula] Terms
PBS and 0.3% Triton-X100™ served as […]. […] FD permeation was presented as the percent of FD that crossed from the apical side of the epithelial cell monolayer to the basolateral cell surface.

Setting [4] is: lipid 1000 μM, percent decrease in TER from time zero.
Where [5] appears, read: lipid 1000 μM, percent of Triton-X100 LDH levels.
Where [6] appears, read: lipid 125 μM, percent of Triton-X100 LDH levels.
The mark [7] stands for this setting: lipid 250 μM, percent of Triton-X100 LDH levels.
Where [8] appears, read: lipid 500 μM, percent of Triton-X100 LDH levels.
Where [9] appears, read: lipid 1000 μM, lower value = greater TER reduction (Table 4).
Where [10] appears, read: positive controls, concentration N/A (Special Sauce; 0.3% Triton-X100).
Setting [11] is: positive controls: Special Sauce 1X, 1% Triton (Table 4).

The values below come from US20070077283A1, “METHOD OF ENHANCING TRANSMUCOSAL DELIVERY OF THERAPEUTIC COMPOUNDS” (Nastech Pharmaceutical Company Inc., priority 2005, published 2007).

On to “1,3-Di(3-sn-Phosphatidyl)-sn-Glycerol Disodium Salt [Cardiolipin (sodium salt)]”, for which the “Mean TER Reduction 1 hr. Post-treatment” value in series [1] (setting [4]) turned out to be 32%. Besides, the “Cytotoxic Effect (LDH) 1 hr. Post-treatments” value in series [2] (setting [5]) is recorded as 21%.
Taken in the same sequence, the figures for “1-Alkyl-2-Acetoyl-sn-Glycero-3-Phosphocholine [Platelet-Activation Factor]” were 35% and 19%.
For the compound “1-Alkyl-2-Hydroxy-sn-Glycero-3-Phosphocholine [Lyso-Platelet-Activation Factor]”, the “Mean TER Reduction 1 hr. Post-treatment” value was 48% in series [1] (lipid 62.5 μM); 23% in series [1] (lipid 125 μM); 29% in series [1] (lipid 250 μM); 61% in series [1] (lipid 500 μM); 84% in series [1] (setting [4]). The “Cytotoxic Effect (LDH) 1 hr. Post-treatments” value in series [2] (lipid 62.5 μM, percent of Triton-X100 LDH levels) was found to be 2%; in series [2] (setting [6]), 3%; in series [2] (setting [7]), 6%; in series [2] (setting [8]), 22%; in series [2] (setting [5]) it was 34%.
Take `CCCCCCCCCCCCCCCCOC[C@H](COP(=O)(O)OCC[N+](C)(C)C)OCC` [2-O-Ethyl-PAF, 1-O-Hexadecyl-2-O-Ethyl-sn-Glycero-3-Phosphorylcholine]: the “Mean % of Original TER Value” is listed as 112% in series [1] (lipid 500 μM (Table 4)) and 70% in series [1] (setting [9]). Besides, the entries for the “Mean % FD3 Permeation” value in series [3] (lipid 500 μM) and in series [3] (lipid 1000 μM) were 1% and 2%, respectively. Further, the “permeation of FD3 relative to negative controls” value in series [3] is “enhanced the permeation of FD3 above that of the negative controls”. Moreover, the “Mean % Relative Cytotoxic Effect (LDH)” value was 1% in series [2] (lipid 500 μM (Table 4)) and 2% in series [2] (lipid 1000 μM (Table 4)).
On to `CCCCCCCCCCCCCCCCOC[C@H](COP(=O)(O)OCC[N+](C)(C)C)OC` [2-O-Methyl-PAF, 1-O-Hexadecyl-2-O-Methyl-sn-Glycero-3-Phosphorylcholine], for which the “Mean % of Original TER Value” in series [1] (lipid 500 μM (Table 4)) is 8%; in series [1] (setting [9]), 2%. The “Mean % FD3 Permeation” value was 7% in series [3] (lipid 500 μM) and 16% in series [3] (lipid 1000 μM). Further, the “permeation of FD3 relative to negative controls” value in series [3] is reported as “enhanced the permeation of FD3 above that of the negative controls”. Also, the “Mean % Relative Cytotoxic Effect (LDH)” value in series [2] (lipid 500 μM (Table 4)) amounted to 18%; in series [2] (lipid 1000 μM (Table 4)), 20%.
With `CCCCCCCCCCCCCCCC(=O)OC[C@H](COP(=O)([O-])OCC[N+](C)(C)C)OC(C)=O` [16:0-02:0 PC, 1-Palmitoyl-2-Acetoyl-sn-Glycero-3-Phosphocholine], the activity at 1000 µM in series [1] (setting [9]) came out at 25%. Also, the “Mean % FD3 Permeation” value in series [3] (lipid 1000 μM) stood at 8%. Moreover, the “Mean % Relative Cytotoxic Effect (LDH)” value in series [2] (lipid 1000 μM (Table 4)) is given as 23%.
`CCCCCCCCCCCCCCCCOC[C@@H](O)COP(=O)([O-])OCC[N+](C)(C)C` [C16 Lyso-PAF, 1-O-Hexadecyl-2-Hydroxy-sn-Glycero-3-Phosphocholine]: the activity at 1000 µM in series [1] (setting [9]) came to 14%. In addition, in series [3] (lipid 1000 μM), the “% FITC-Dextran Permeation FD10” value turned out to be 6%, the “% FITC-Dextran Permeation FD40” value is given as 2% and the “Mean % FD3 Permeation” value is 6%. For the same compound, in series [3] (lipid 1000 μM (Table 5)), the “% FITC-Dextran Permeation FD3” value is 8%. For the same compound, the “permeation of FD3 relative to negative controls” value in series [3] was “enhanced the permeation of FD3 above that of the negative controls”. The “Mean % Relative Cytotoxic Effect (LDH)” value in series [2] (lipid 1000 μM (Table 4)) is recorded as 26%.
Consider `CCCCCCCCCCCCCCCCOC[C@H](CO)OC(C)=O` [C16-02:0 DG, 1-O-Hexadecyl-2-Acetoyl-sn-Glycerol], for which the activity at 1000 µM in series [1] (setting [9]) amounted to 98%. The “Mean % FD3 Permeation” value in series [3] (lipid 1000 μM) amounted to 0%. The “Mean % Relative Cytotoxic Effect (LDH)” value in series [2] (human, 1 h, 1000 μM) was −3%.
In the case of `CCCCCCCCCCCCCCCCOC[C@H](COP(=O)([O-])OCC[N+](C)(C)C)OC(=O)CCC` [C16-04:0 PC, 1-O-Hexadecyl-2-Butyroyl-sn-Glycero-3-Phosphocholine], in series [1] (setting [9]), the activity at 1000 µM came to 0%. In addition, the “Mean % FD3 Permeation” value in series [3] (lipid 1000 μM) is 7%. Also, the “permeation of FD3 relative to negative controls” value in series [3] was “enhanced the permeation of FD3 above that of the negative controls”. The “Mean % Relative Cytotoxic Effect (LDH)” value in series [2] (human, 1 h, 1000 μM) came out at 22%.
On to `CCCCCCCCCCCCC/C=C/[C@@H](O)[C@@H](N)CO[C@@H]1O[C@H](CO)[C@H](O)[C@H](O)[C@H]1O` [Galactosyl sphingosine, D-Galactosyl-β1-1′-D-erythro-Sphingosine], for which the “Mean TER Reduction 1 hr. Post-treatment” value in series [1] (lipid 125 μM) is given as 36%; in series [1] (lipid 250 μM), 43%; in series [1] (lipid 500 μM) it was 42%; in series [1] (setting [4]) it was 91%. For the same compound, the “Cytotoxic Effect (LDH) 1 hr. Post-treatments” value in series [2] (setting [6]) was 2%; in series [2] (setting [7]), 3%; in series [2] (setting [8]), 2%; in series [2] (setting [5]), 26%.
For `CCCCCCCCCCCCC/C=C/[C@@H](O)[C@H](COP(=O)(O)O)NC(C)=O.N` [N-acetoyl ceramide-1-phosphate, (2S,3R,4E)-2-Acetoylaminooctadec-4-Ene-1,3-Diol-1-Phosphate (Ammonium Salt)], the “Mean TER Reduction 1 hr. Post-treatment” value is on record as 24% in series [1] (lipid 125 μM), 23% in series [1] (lipid 250 μM), 29% in series [1] (lipid 500 μM) and 42% in series [1] (setting [4]). The “Cytotoxic Effect (LDH) 1 hr. Post-treatments” value in series [2] (setting [6]), in series [2] (setting [7]), in series [2] (setting [8]) and in series [2] (setting [5]) was 2% in each case.
Consider “Octylphenolpoly(ethyleneglycolether)x [Triton-X100, reference compound]”, for which the “% of the original TER value” in series [1] (controls of the further test of lipids at 250 μM to 1000 μM (b219-b220)) was −6%. In series [1] (setting [10]), the “Mean TER Reduction 1 hr. Post-treatment” value came out at 100%. Besides, the “Mean % of Original TER Value” in series [1] (setting [11]) is −7%. Moreover, the “% Relative Cytotoxic Effect (LDH)” value in series [2] (in the presence of FITC-Dextran FD3 (Table 6)) turned out to be 99%. Moreover, the “Cytotoxic Effect (LDH) 1 hr. Post-treatments” value in series [2] (setting [10]) stood at 100%. Also, in series [2] (setting [11]), the “Mean % Relative Cytotoxic Effect (LDH)” value was 100%. For the same compound, the “% Cytotoxicity” value in series [2] (treatment alone, no lipid, apical LDH release (Table 8), Triton 0.3%) is given as 100%.
